Measured values as given in patent publication US12059433B2, “Treatment for autistic spectrum disorder (ASD) and relevant symptoms” (ACADEMIA SINICA, priority 2019, dated 2024).

Tests used:
CTTNBP2 M120I mice = assay: Reciprocal social interaction (RSI) test, M120I mutant mice; assay type: in vivo, mouse; settings: for social interaction in RSI, single supplement: CTTNBP2 M120I mice, individually provided: zinc (20 ppm), BCAA (0.225%), serine (0.5%)
Protocol: Before RSI, mice were individually isolated for at least a week. For the experiment, an unfamiliar adult mouse was put into the home cage of the test mouse for 10 min. The lid of the cage was removed during the entire session. Mouse behaviors were recorded by videotaping from above. The total time a test mouse spent interacting with and gently sniffing the unfamiliar mouse was manually recorded. Aggressive behavior was not assessed.
A supplement or supplement mixture was prepared by mixing a zinc ion source, a serine component and/or BCAAs at various concentrations in drinking water for behavior analyses.
We tested three different ASD mouse models, i.e. Nf1+/−, Tbr1+/−, and Cttnbp2 M120I mice. Before taking supplement, mice were subjected to the first reciprocal social interaction test. After taking supplement for 7 days, mice were analyzed again using reciprocal social interaction to evaluate the effect of nutritional supplementation.

[1] = tested on: synaptic proteins and glutamate receptors in synaptosomal fractions of Cttnbp2−/− mouse brains; settings: 40 ppm zinc in drinking water for 7 days vs regular water
Protocol: One hemisphere of the forebrains from adult mice (˜8-weeks-old) were isolated and homogenized using a tissue dounce homogenizer with a loose pestle in 1 ml sucrose buffer [50 mM Tris-Cl pH 7.4, 320 mM sucrose, 2 mM DTT, 2 μg/ml leupeptin, 2 μg/ml pepstatin-A, 2 μg/ml aproteinin, 2 mM PMSF, 2 μg/ml MG132]. An aliquot of 50 μl of total homogenate was kept. The remainder of the total homogenate was centrifuged twice at 800×g for 10 min at 4° C. The supernatant was centrifuged at 9200×g for 15 min to collect the pellet as a crude synaptosomal fraction. The protein concentrations of total homogenates and synaptosomal fractions were determined by Bradford assay (Bio-Rad Protein Assay Dye Reagent Concentrate, Cat #5000006). Synaptosomal protein samples were then analyzed with LC-MS-MS and immunoblotting.
To validate CTTNBP2 expression in knockout mice, adult mouse brain (˜8 weeks old) samples were homogenized in RIPA buffer. After 30 min, debris was removed by centrifugation (13000 rpm in a microcentrifuge for 20 min). The supernatants were collected and protein amounts were determined by Bio-Rad Protein Assay Dye Reagent Concentrate. Protein samples were denatured by 2× sample buffer and boiled for 10 min. Five μg of protein samples were separated by SDS-PAGE and then transferred to PVDF membrane. Membranes were blocked using blocking buffer [5% skim milk and 0.1% Tween-20 in PBS] for 30 min and hybridized with primary antibodies. In principle, primary antibody was added into blocking buffer and hybridized with the membrane overnight at 4° C. or for 3 hr at room temperature. Horseradish peroxidase-conjugated goat anti-mouse, rabbit, or guinea pig secondary antibodies were used to detect primary antibody and were visualized using a Western Lightening Plus ECL system (PerkinElmer).
(§1) The concentration of zinc in the mouse chow (5K54, LabDiet) provided in our animal facility is 84 ppm. To increase the zinc intake to ˜150 ppm, mice were provided with ZnSO4 (Z0251, Sigma-Aldrich) in drinking water at a concentration of 40 ppm, which is based on daily consumption of ˜5 ml water and 2.5 g chow by each mouse. To study the expression of synaptic proteins after zinc supplementation, adult mice (˜8 weeks old) were fed with zinc-supplemented water or normal drinking water as control for 7 days and then sacrificed for synaptosomal analysis as described above. To validate the zinc levels in brain, zinc quantification kit (ab102597, Abcam) was used according to manufacturer's instruction. The zinc concentrations were normalized by protein amounts. To study the effect of zinc supplementation on social behavior of Cttnbp2 deletion and mutant mice, three consecutive trials of reciprocal social interaction were performed at intervals of 7 days (FIG. 8C). The first trial was performed before zinc supplementation. After the first trial, mice were provided with zinc-supplemented water (40 ppm) for 7 days and then subjected to the second trial. After the second trial, zinc-supplemented water was replaced with normal drinking water for 7 days and mice then underwent the third trial. Reciprocal social interaction trials were performed as described above.

[2] = zinc supplementation in drinking water, experimental period
CTTNBP2 R533* mice = assay: Reciprocal social interaction (RSI) test, R533* mutant mice; assay type: in vivo, mouse
Protocol: (§2) Mouse behaviors were recorded by videotaping from above. […] Aggressive behavior was not assessed. […] The zinc concentrations were normalized by protein amounts. […] The first trial was performed before zinc supplementation. […] Reciprocal social interaction trials were performed as described above. To analyze the effect of D-cycloserine (DCS, ab120121, Abcam) on social behaviors of Cttnbp2 mutant mice, adult mice (˜8 weeks old) were first habituated to handling by subjecting them to an open field with or without inanimate objects. Mice were then isolated until ˜10 weeks old for reciprocal social interaction trials. During isolation, mice were habituated to intraperitoneal injection, which effectively reduces their anxiety response to intraperitoneal injection during the experimental period. On day 1 of the experiment, saline control (0.9% of NaCl) was intraperitoneally injected into the test animal 30 min before a reciprocal social interaction trial, conducted as described above. On day 2 of the experiment, D-cycloserine solution (2 mg/kg in 0.9% of NaCl) was intraperitoneally injected into mice 30 min before a reciprocal social interaction trial.

Cttnbp2−/− mice = assay: Reciprocal social interaction (RSI) test, Cttnbp2−/− mice; assay type: in vivo, mouse
Protocol: as §2

[3] = Cttnbp2−/− mice; 40 ppm zinc in drinking water for 7 days vs regular water
Protocol: as §1

wild-type mice = settings: 40 ppm zinc in drinking water for 7 days
Protocol: as §1

Tbr1+/− mice = settings: cited from earlier work; for behavioral defects and autism-like behaviors: refs [49, 50, 51]
Shank2−/− mice = settings: previous studies [35-38]; cited from earlier work

With N[C@@H](CO)C(=O)O [serine, L-Serine] as the compound, how does the “social interaction in RSI, single supplement” value (CTTNBP2 M120I mice) read?
The value was “did not improve”.

Which results are given for O.O.O.O.O.O.O.O=S(=O)([O-])[O-].[Zn+2] [zinc, Zinc sulfate heptahydrate]?
social interaction in RSI, single supplement (CTTNBP2 M120I mice): did not improve; GRIN1 expression level in synaptosomal fractions [1]: increased; GRIN2B expression level in synaptosomal fractions [1]: increased; MOB4 expression level in synaptosomal fractions [1]: increased; RAC3 expression level in synaptosomal fractions [1]: increased; SHANK2 expression level in synaptosomal fractions [1]: increased; SHANK3 expression level in synaptosomal fractions [1]: increased; STRN expression level in synaptosomal fractions [1]: increased; cortactin expression level in synaptosomal fractions [1]: increased; levels of GRIA1 in synaptosomal fractions [1]: not noticeably altered; levels of GRIA2 in synaptosomal fractions [1]: not noticeably altered; synaptic levels of DPYSL3 [1]: reduced; body weight [2]: nor did it alter; volumes of water drunk daily [2]: nor did it alter; social interaction, third RSI test (CTTNBP2 R533* mice; R533* mice, 7 days after discontinuing zinc supplementation, vs second RSI test): tended to be lowered, but it was not statistically different from those of the second RSI; time interacting with the unfamiliar mouse, second RSI test (CTTNBP2 R533* mice; R533* mice, after 40 ppm zinc in drinking water for 7 days, vs first RSI test): spent significantly longer interacting with the unfamiliar mouse; social interaction, third RSI test (Cttnbp2−/− mice; 7 days after discontinuing zinc supplementation, vs second RSI test): reduced; time interacting with the unfamiliar mouse, second RSI test (Cttnbp2−/− mice; after 40 ppm zinc in drinking water for 7 days, vs first RSI test): spent significantly longer interacting with the unfamiliar mouse; concentration of zinc in brains [3]: increase; social behaviors in RSI tests (wild-type mice): did not noticeably influence

With Oc1c(I)cc(Cl)c2cccnc12 [clioquinol] as the compound, how does the “behavioral defects and autism-like behaviors” value (Tbr1+/− mice) read?
The value was “ameliorate the behavioral defects and improve autism-like behaviors”.

For N[C@@H]1CONC1=O [D-cycloserine, (4R)-4-amino-1,2-oxazolidin-3-one, reference compound], which social behaviors (Shank2−/− mice) is on record?
The social behaviors was “improves”.

And the “social interaction behaviors in RSI test” value (CTTNBP2 M120I mice; M120I mutant mice, 2 mg/kg intraperitoneally 30 min before RSI, vs saline)?
Its value is “improved”.

What about the social behaviors (Tbr1+/− mice; previous studies [35-38]) of the same compound?
The social behaviors was “improves”.

What about the “behavioral defects and autism-like behaviors” value (Tbr1+/− mice) of the same compound?
Its value is “ameliorate the behavioral defects and improve autism-like behaviors”.

What about the “social interaction behaviors in RSI test” value (CTTNBP2 R533* mice; R533* mutant mice, 2 mg/kg intraperitoneally 30 min before RSI, vs saline) of the same compound?
Its value is “improved”.

And the “social interaction behavior in RSI test” value (Cttnbp2−/− mice; 2 mg/kg intraperitoneally 30 min before RSI, vs saline control)?
Its value is “increased social interaction behavior”.
